# Measurements from US6492303B1, “Compositions for protecting a plant from a disease and using method thereof” (priority 1998, dated 2002).
# Experiments:
# rice plant “Nihonbare” [1] = experiment: Test 11: production of Sakuranetin and Momilactone-A in wounded rice blades treated with L-cysteine/D-glucose and comparative solutions; conditions: rice fifth blades, 25 μl test solution on 1 mm cuts, 60 hours at 25° C. under light
# Soybean = conditions: 500 ml per stock sprayed on foliage, aboveground part 72 hours after spraying; Non-treating Section = 100
# Protocol: (§1) Above plants in the age of 5-6 blades were employed for the test. […] The application for MG3 and M1 was executed in the form of spraying on the foliage by 500 ml per stock. The analysis of phytoalexins were carried out by sampling the aboveground part of plants 72 hours after the spraying, extracting the samples with acetone followed by chromatographic elution with ethyl acetate through a silica gel, and finally analyzing on an HPLC instrument.
# Eggplant = conditions: 500 ml per stock sprayed on foliage, aboveground part 72 hours after spraying; Non-treating Section = 100
# Protocol: as §1
# Podded pea = conditions: 500 ml per stock sprayed on foliage, aboveground part 72 hours after spraying; Non-treating Section = 100
# Protocol: as §1
# [2] = test system: rice blight (Pyricularia oryzae); assay type: in vivo; conditions: rice “Nihonbare”, 100 ml sprayed on foliage 24 hours before inoculation, measured ten days after inoculation; Control Section 25.1
# Tobacco = conditions: 500 ml per stock sprayed on foliage, aboveground part 72 hours after spraying; Non-treating Section = 100
# Protocol: as §1
# Chinese cabbage = conditions: 500 ml per stock sprayed on foliage, aboveground part 72 hours after spraying; Non-treating Section = 100
# Protocol: as §1
# Beat = conditions: 500 ml per stock sprayed on foliage, aboveground part 72 hours after spraying; Non-treating Section = 100
# Protocol: as §1
# rice plant “Nihonbare” [3] = experiment: Test 1: production of Sakuranetin and Momilactone-A in wounded rice blades treated with DL-methionine/D-glucose solutions; assay type: in vivo; conditions: rice fifth blades, 25 μl test solution on 1 mm cuts, 60 hours at 25° C. under light; detected amount per cut
# Protocol: The structural formula of Sakuranetin is shown in Formula 1, and of Momilactone-A in Formula 2. [drawing 1]
# A control section was set up similarly except using 25 μl of distilled water only.
# Unit: ng/spot (detected amount per cut)
# Tomato = conditions: 500 ml per stock sprayed on foliage, aboveground part 72 hours after spraying; Non-treating Section = 100
# Protocol: as §1
# Grape = conditions: 500 ml per stock sprayed on foliage, aboveground part 72 hours after spraying; Non-treating Section = 100
# Protocol: as §1
# Potato = conditions: 500 ml per stock sprayed on foliage, aboveground part 72 hours after spraying; Non-treating Section = 100
# Protocol: as §1
# Carrot = conditions: 500 ml per stock sprayed on foliage, aboveground part 72 hours after spraying; Non-treating Section = 100
# Protocol: as §1
# [4] = test system: various pathogenic bacteria of plants including Pyricularia oryzae; conditions: antibacterial activity; stated as known, no test described; cited from earlier work
smiles,measurement,setting,value
"O=C[C@H](O)[C@@H](O)[C@H](O)[C@H](O)CO [Section GL1, D-glucose]",Amount of Momilactone-A,rice plant “Nihonbare” [1],not detected
same,Amount of Sakuranetin,rice plant “Nihonbare” [1],not detected
"CSCCC(N)C(=O)O (racemic) [Section M1, DL-methionine]","Griceorin (Soybean), produced amount per unit weight",Soybean,"1,910"
same,"Lubimin (Eggplant), produced amount per unit weight",Eggplant,"23,070"
same,"Pisatin (Podded pea), produced amount per unit weight",Podded pea,"4,522"
same,Necrosis Ratio = (necrosis area + decay area)/total area,[2],7.8%
same,"Capsydiol (Tobacco), produced amount per unit weight",Tobacco,"1,907"
same,"Blacinin (Chinese cabbage), produced amount per unit weight",Chinese cabbage,"18,600"
same,"Vetablugarin (Beat), produced amount per unit weight",Beat,"1,810"
same,Amount of Momilactone-A,rice plant “Nihonbare” [3],55.89 ng/spot
same,Amount of Sakuranetin,rice plant “Nihonbare” [3],122.56 ng/spot
same,"Ricitin (Tomato), produced amount per unit weight",Tomato,"10,039"
same,"α-Vinipherin (Grape), produced amount per unit weight",Grape,962
same,"Ricitin (Potato), produced amount per unit weight",Potato,590
same,"6-Methoxymelain (Carrot), produced amount per unit weight",Carrot,"3,222"
"N[C@@H](CCC(=O)N[C@@H](CS)C(=O)NCC(=O)O)C(=O)O [Section GT1, Glutathione of reduced type]",Amount of Momilactone-A,rice plant “Nihonbare” [1],not detected
same,Amount of Sakuranetin,rice plant “Nihonbare” [1],not detected
COc1cc(O)c2c(c1)O[C@H](c1ccc(O)cc1)CC2=O [Sakuranetin],ED50,[4],15 ppm
C=C[C@]1(C)CC[C@@H]2C(=C[C@H]3OC(=O)[C@@]4(C)C(=O)CC[C@@]2(C)[C@@H]34)C1 [Momilactone-A],ED50,[4],15 ppm
"N[C@@H](CS)C(=O)O [Section C1, L-cysteine]",Amount of Momilactone-A,rice plant “Nihonbare” [1],38.99 ng/spot
same,Amount of Sakuranetin,rice plant “Nihonbare” [1],79.10 ng/spot
"N.N.O=S(=O)(O)O [Section AS1, Ammonium sulfate]",Amount of Momilactone-A,rice plant “Nihonbare” [1],not detected
same,Amount of Sakuranetin,rice plant “Nihonbare” [1],not detected
